Assay results: publication PMC9414913, “Tyrosinase Inhibitors Derived from Chemical Constituents of Dianella ensifolia” (Plants, 2022)

target: mushroom tyrosinase (Agaricus bisporus, UniProt C7FF04); experiment: In vitro mushroom tyrosinase inhibition assay; format: biochemical; settings: compared with arbutin (positive control)
Protocol: The mushroom tyrosinase inhibitory assay has been described in detail previously. Briefly, various concentrations of test compounds (100 μL) and 2 mM L-tyrosine (80 μL, Sigma-Aldrich, St. Louis, MO, USA) were mixed in 96-well plates. 20 μL of mushroom tyrosinase (1000 U/mL, Sigma-Aldrich, USA) was added to initiate the assay. The absorbance of the mixture was measured at 490 nm using a microplate reader (μQuant™, BioTek Winooski, VT, USA).

Chain of mushroom tyrosinase (G1K3P4 entry or part of it): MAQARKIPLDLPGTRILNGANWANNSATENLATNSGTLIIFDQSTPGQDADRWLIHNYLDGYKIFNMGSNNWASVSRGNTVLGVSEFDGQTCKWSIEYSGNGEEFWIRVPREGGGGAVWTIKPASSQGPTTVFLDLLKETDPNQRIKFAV
Chain of mushroom tyrosinase (C7FF04 2-392): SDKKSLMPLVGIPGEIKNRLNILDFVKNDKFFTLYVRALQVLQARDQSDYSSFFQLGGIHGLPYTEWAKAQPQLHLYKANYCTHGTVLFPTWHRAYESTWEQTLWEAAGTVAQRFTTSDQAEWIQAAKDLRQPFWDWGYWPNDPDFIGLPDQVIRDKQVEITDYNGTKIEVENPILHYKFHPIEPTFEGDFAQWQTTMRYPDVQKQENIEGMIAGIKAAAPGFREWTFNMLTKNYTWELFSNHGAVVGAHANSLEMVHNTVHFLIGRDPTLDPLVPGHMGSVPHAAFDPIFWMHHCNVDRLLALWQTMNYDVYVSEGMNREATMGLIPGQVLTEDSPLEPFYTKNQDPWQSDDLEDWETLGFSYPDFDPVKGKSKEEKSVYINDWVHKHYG

Row | SMILES | mushroom tyrosinase inhibitory effect, in words
1 | COc1cc2c(cc1OC)O[C@H](c1ccc(O)cc1)CC2 [Compound 1, (2S)-4’-hydroxy-6,7-dimethoxyflavan] | moderate or weak activity
2 | COc1ccc2c(c1C)O[C@H](c1ccc(O)c(O)c1)CC2 [Compound 2, (2S)-3’,4’-dihydroxy-7-methoxy-8-methylflavan] | more substantial inhibitory effect against mushroom tyrosinase than arbutin
3 | COc1ccc2c(c1)O[C@H](c1ccccc1O)CC2 [Compound 3, (2S)-2’-hydroxy-7-methoxyflavan] | moderate or weak activity
4 | COc1ccc2c(c1C)OC(C1(O)C=CC(=O)CC1)CC2 [Compound 4, (2S,1′S)-4-hydroxy-4-(7-methoxy-8-methylchroman-2-yl)-cyclohex-2-enone] | moderate or weak activity
5 | Oc1ccc([C@@H]2CCc3ccc(O)cc3O2)cc1 [Compound 8, (2S)-7,4’-dihydroxyflavan] | moderate or weak activity
6 | Cc1c(O)ccc2c1O[C@H](c1ccc(O)cc1)CC2 [Compound 10, (2S)-7,4’-dihydroxy-8-methylflavan] | moderate or weak activity
7 | COc1ccc2c(c1C)O[C@H](c1cc(O)c(OC)c(O)c1)CC2 [Compound 12, (2S)-3’,5’-dihydroxy-7,4’-dimethoxy-8-methylflavan] | moderate or weak activity
8 | COc1ccc([C@@H]2CCc3cc(OC)c(O)cc3O2)cc1O [Compound 13, (2S)-7,3′-dihydroxy-6,4’-dimethoxyflavan] | moderate or weak activity
9 | O=C1C[C@@H](c2ccc(O)cc2)Oc2cc(O)ccc21 [Compound 15, (2S)-liquiritigenin] | more substantial inhibitory effect against mushroom tyrosinase than arbutin
10 | O=c1cc(-c2ccc(O)c(O)c2)oc2cc(O)cc(O)c12 [Compound 20, luteolin] | more substantial inhibitory effect against mushroom tyrosinase than arbutin
11 | O=c1cc(-c2ccc(O)cc2)oc2cc(O)cc(O)c12 [Compound 21, apigenin] | more substantial inhibitory effect against mushroom tyrosinase than arbutin
12 | CC(=O)c1c(C)cc2c(c1O)C(=O)CCC2O (stereo not shown) [Compound 41, 7-acetyl-4,8-dihydroxy-6-methyl-1-tetralone] | moderate or weak activity

same assay, conditions: substrate 2 mM L-tyrosine; absorbance at 490 nm; read-out: IC50 (mushroom tyrosinase inhibitory effect)

Row | SMILES | IC50 [µM]
13 | O=C1C[C@@H](c2ccc(O)cc2)Oc2cc(O)ccc21 [Compound 15, (2S)-liquiritigenin] | 109 ± 6.2
